Measurements as given in ChEMBL document CHEMBL4507288 (2021).
Active and inactive are the calls of the source. The calls are words filed in the database; no cut-off is given here.

Legend:
Histamine H2 receptor = Histamine H2 receptor (Homo sapiens, UniProt P25021); assay: GPCRScan assay: inhibition of H2; set-up: radioligand conc. used [nm] 0.02 – 0.05, parental cells Stable HEK
[1] = biological target: Dual specificity protein kinase CLK2 (Homo sapiens) (UniProt P49760); conditions: Compound concentration 1000.0 nM
[2] = biological target: Tyrosine-protein kinase SYK (Homo sapiens) (UniProt P43405); conditions: Compound concentration 1000.0 nM
[3] = biological target: Rho-associated protein kinase 2 (Homo sapiens) (UniProt O75116); conditions: Compound concentration 1000.0 nM
[4] = biological target: Serine/threonine-protein kinase Nek11 (Homo sapiens) (UniProt Q8NG66); conditions: Compound concentration 1000.0 nM
[5] = biological target: Insulin receptor (Homo sapiens) (UniProt P06213); conditions: Compound concentration 1000.0 nM
[6] = biological target: Serine/threonine-protein kinase/endoribonuclease IRE1 (Homo sapiens) (UniProt O75460); conditions: Compound concentration 1000.0 nM
[7] = biological target: Glycogen synthase kinase-3 alpha (Homo sapiens) (UniProt P49840); conditions: Compound concentration 1000.0 nM
[8] = biological target: Aurora kinase B (Homo sapiens) (UniProt Q96GD4); conditions: Compound concentration 1000.0 nM
[9] = system: eIF-2-alpha kinase GCN2 (Homo sapiens), Q9P2K8 [S808G]; conditions: Compound concentration 1000.0 nM
[10] = biological target: Ephrin type-B receptor 4 (Homo sapiens) (UniProt P54760); conditions: Compound concentration 1000.0 nM
[11] = biological target: TRAF2 and NCK-interacting protein kinase (Homo sapiens) (UniProt Q9UKE5); conditions: Compound concentration 1000.0 nM
[12] = biological target: Mitogen-activated protein kinase kinase kinase 13 (Homo sapiens) (UniProt O43283); conditions: Compound concentration 1000.0 nM
[13] = biological target: Tyrosine-protein kinase CSK (Homo sapiens) (UniProt P41240); conditions: Compound concentration 1000.0 nM
[14] = system: Mast/stem cell growth factor receptor Kit (Homo sapiens), P10721 [L576P]; conditions: Compound concentration 1000.0 nM
[15] = biological target: Amyloid-beta precursor protein (Homo sapiens, UniProt P05067); assay: Radioligand Binding Assay
[16] = biological target: Receptor tyrosine-protein kinase erbB-2 (Homo sapiens) (UniProt P04626); conditions: Compound concentration 1000.0 nM
[17] = biological target: Mitogen-activated protein kinase kinase kinase 10 (Homo sapiens) (UniProt Q02779); conditions: Compound concentration 1000.0 nM
[18] = biological target: Serine/threonine-protein kinase 17A (Homo sapiens) (UniProt Q9UEE5); conditions: Compound concentration 1000.0 nM
[19] = biological target: Myosin light chain kinase family member 4 (Homo sapiens) (UniProt Q86YV6); conditions: Compound concentration 1000.0 nM
[20] = biological target: Non-receptor tyrosine-protein kinase TNK1 (Homo sapiens) (UniProt Q13470); conditions: Compound concentration 1000.0 nM
[21] = biological target: Casein kinase II subunit alpha (Homo sapiens) (UniProt P68400); conditions: Compound concentration 1000.0 nM
[22] = biological target: Serine/threonine-protein kinase Nek5 (Homo sapiens) (UniProt Q6P3R8); conditions: Compound concentration 1000.0 nM
[23] = biological target: Serine/threonine-protein kinase N1 (Homo sapiens) (UniProt Q16512); conditions: Compound concentration 1000.0 nM
[24] = biological target: Tyrosine-protein kinase Yes (Homo sapiens) (UniProt P07947); conditions: Compound concentration 1000.0 nM
[25] = biological target: Tyrosine-protein kinase ZAP-70 (Homo sapiens) (UniProt P43403); conditions: Compound concentration 1000.0 nM
Tyrosine-protein kinase ZAP-70 (Homo sapiens), sequence (P43403 whole entry): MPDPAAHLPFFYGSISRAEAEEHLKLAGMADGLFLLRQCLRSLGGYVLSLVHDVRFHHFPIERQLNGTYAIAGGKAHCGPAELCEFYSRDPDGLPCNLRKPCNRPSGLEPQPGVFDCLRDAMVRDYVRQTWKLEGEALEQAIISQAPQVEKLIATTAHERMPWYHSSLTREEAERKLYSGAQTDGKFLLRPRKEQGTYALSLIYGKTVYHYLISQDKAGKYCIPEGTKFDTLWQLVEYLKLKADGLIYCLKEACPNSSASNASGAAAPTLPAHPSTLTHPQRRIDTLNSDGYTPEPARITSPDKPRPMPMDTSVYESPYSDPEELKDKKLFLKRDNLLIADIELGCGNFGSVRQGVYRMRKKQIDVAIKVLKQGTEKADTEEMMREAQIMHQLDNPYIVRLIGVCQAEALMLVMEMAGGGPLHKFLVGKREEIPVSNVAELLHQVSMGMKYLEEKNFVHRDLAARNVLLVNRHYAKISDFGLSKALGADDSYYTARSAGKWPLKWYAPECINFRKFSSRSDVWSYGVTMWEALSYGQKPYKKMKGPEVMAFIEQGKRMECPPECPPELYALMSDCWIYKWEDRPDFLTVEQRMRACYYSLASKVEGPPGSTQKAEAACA

[26] = biological target: Macrophage colony-stimulating factor 1 receptor (Homo sapiens) (UniProt P07333); conditions: Compound concentration 1000.0 nM
Macrophage colony-stimulating factor 1 receptor (Homo sapiens), sequence (P07333 whole entry): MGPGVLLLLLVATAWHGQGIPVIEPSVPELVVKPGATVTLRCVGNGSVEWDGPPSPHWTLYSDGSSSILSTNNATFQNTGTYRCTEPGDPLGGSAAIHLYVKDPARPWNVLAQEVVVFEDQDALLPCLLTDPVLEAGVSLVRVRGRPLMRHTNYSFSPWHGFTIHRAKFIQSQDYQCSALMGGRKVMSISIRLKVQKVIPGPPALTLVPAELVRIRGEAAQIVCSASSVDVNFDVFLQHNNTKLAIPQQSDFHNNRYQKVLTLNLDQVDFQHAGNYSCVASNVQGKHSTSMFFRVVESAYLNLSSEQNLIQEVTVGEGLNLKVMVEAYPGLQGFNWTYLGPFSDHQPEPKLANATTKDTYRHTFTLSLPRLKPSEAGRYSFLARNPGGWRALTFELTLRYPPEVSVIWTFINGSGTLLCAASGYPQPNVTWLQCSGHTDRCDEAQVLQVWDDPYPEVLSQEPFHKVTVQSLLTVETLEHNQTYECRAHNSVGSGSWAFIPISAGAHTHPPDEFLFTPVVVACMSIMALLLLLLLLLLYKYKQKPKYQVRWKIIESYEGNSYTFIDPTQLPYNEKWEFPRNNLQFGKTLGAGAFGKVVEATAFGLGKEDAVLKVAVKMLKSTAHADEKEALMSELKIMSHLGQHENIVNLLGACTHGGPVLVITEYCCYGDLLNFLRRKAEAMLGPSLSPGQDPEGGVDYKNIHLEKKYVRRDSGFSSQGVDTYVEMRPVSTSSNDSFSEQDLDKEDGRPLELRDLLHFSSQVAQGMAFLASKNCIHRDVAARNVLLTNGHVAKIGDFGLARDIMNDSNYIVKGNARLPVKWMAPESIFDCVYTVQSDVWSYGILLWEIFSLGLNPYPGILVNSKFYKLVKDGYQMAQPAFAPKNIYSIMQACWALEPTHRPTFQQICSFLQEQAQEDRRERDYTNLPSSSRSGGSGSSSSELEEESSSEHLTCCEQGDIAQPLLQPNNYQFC

[27] = biological target: BDNF/NT-3 growth factors receptor (Homo sapiens) (UniProt Q16620); conditions: Compound concentration 1000.0 nM
[28] = biological target: Ephrin type-A receptor 1 (Homo sapiens) (UniProt P21709); conditions: Compound concentration 1000.0 nM
[29] = biological target: Serine/threonine-protein kinase WNK2 (Homo sapiens) (UniProt Q9Y3S1); conditions: Compound concentration 1000.0 nM
[30] = biological target: Mitogen-activated protein kinase 10 (Homo sapiens) (UniProt P53779); conditions: Compound concentration 1000.0 nM
[31] = biological target: Leukocyte tyrosine kinase receptor (Homo sapiens) (UniProt P29376); conditions: Compound concentration 1000.0 nM
[32] = biological target: Phosphatidylinositol 3-kinase C2 domain-containing subunit gamma (Homo sapiens) (UniProt O75747); conditions: Compound concentration 1000.0 nM
Phosphatidylinositol 3-kinase C2 domain-containing subunit gamma (Homo sapiens), sequence (O75747 whole entry, the tested form may be a part): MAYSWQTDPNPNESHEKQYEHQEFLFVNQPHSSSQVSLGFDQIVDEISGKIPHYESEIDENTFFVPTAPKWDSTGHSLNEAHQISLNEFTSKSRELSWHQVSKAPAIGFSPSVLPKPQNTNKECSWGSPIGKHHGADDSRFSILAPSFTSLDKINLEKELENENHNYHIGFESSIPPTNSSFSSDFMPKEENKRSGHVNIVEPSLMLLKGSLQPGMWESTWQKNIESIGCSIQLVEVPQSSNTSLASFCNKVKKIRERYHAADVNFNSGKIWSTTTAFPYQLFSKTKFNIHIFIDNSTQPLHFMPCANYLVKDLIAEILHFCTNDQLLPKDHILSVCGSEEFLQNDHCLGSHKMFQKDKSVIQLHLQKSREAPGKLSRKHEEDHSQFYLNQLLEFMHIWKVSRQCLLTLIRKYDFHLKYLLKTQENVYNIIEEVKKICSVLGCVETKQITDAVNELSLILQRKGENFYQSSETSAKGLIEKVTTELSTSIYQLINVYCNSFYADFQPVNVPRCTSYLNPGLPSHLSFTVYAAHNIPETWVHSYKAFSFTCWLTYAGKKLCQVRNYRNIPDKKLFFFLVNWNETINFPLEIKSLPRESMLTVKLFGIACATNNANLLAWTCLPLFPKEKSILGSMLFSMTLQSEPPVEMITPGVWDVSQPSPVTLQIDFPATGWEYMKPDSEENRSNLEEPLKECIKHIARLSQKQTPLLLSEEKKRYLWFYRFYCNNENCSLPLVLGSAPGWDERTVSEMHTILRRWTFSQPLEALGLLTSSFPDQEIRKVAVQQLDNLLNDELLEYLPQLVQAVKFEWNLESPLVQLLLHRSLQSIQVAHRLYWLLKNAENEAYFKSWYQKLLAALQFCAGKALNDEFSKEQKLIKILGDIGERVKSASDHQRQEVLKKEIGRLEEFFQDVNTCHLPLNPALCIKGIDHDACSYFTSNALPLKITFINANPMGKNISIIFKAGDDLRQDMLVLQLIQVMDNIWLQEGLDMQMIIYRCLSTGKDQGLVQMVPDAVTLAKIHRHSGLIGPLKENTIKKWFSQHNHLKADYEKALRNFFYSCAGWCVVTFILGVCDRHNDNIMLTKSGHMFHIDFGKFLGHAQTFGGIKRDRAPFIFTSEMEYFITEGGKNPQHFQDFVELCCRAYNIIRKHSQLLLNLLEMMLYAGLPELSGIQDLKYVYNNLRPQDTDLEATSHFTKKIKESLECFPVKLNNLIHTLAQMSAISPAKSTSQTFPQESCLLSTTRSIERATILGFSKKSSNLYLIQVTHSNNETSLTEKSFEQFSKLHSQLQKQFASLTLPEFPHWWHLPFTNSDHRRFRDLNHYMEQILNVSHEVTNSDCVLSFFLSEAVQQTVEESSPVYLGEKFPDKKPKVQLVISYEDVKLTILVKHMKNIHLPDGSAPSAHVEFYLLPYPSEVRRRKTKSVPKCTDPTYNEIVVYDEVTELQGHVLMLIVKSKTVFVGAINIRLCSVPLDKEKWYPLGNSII

[33] = biological target: Tyrosine-protein kinase ABL1 (Homo sapiens) (UniProt P00519); conditions: Compound concentration 1000.0 nM
[34] = biological target: Fibroblast growth factor receptor 3 (Homo sapiens) (UniProt P22607); conditions: Compound concentration 1000.0 nM
[35] = biological target: Tyrosine-protein kinase JAK1 (Homo sapiens) (UniProt P23458); conditions: Compound concentration 1000.0 nM
[36] = biological target: Calcium/calmodulin-dependent protein kinase type II subunit delta (Homo sapiens) (UniProt Q13557); conditions: Compound concentration 1000.0 nM
[37] = biological target: Serine/threonine-protein kinase D2 (Homo sapiens) (UniProt Q9BZL6); conditions: Compound concentration 1000.0 nM
[38] = biological target: Ribosomal protein S6 kinase alpha-4 (Homo sapiens) (UniProt O75676); conditions: Compound concentration 1000.0 nM
Ribosomal protein S6 kinase alpha-4 (Homo sapiens), sequence (O75676 whole entry, looked up): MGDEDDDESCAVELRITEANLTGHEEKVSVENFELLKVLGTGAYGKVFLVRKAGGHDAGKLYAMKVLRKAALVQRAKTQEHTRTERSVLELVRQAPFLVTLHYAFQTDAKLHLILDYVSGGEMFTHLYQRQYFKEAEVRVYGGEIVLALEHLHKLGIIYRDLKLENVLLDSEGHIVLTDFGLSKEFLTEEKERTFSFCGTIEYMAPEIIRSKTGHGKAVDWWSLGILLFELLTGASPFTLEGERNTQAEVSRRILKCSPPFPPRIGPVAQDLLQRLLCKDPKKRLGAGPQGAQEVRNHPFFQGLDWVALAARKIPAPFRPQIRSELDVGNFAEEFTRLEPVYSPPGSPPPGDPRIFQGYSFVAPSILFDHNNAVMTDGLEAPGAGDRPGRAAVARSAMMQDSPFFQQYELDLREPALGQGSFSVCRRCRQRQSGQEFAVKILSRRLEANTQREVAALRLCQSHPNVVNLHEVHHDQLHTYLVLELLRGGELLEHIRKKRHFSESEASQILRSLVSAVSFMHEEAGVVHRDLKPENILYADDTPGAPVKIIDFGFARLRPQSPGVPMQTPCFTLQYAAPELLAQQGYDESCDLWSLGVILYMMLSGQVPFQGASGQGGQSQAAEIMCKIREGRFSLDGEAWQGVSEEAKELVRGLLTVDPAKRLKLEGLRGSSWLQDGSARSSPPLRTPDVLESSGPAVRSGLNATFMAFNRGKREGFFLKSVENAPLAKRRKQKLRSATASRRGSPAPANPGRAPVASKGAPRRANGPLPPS

[39] = biological target: Protein kinase C epsilon type (Homo sapiens) (UniProt Q02156); conditions: Compound concentration 1000.0 nM
Protein kinase C epsilon type (Homo sapiens), sequence (Q02156 whole entry): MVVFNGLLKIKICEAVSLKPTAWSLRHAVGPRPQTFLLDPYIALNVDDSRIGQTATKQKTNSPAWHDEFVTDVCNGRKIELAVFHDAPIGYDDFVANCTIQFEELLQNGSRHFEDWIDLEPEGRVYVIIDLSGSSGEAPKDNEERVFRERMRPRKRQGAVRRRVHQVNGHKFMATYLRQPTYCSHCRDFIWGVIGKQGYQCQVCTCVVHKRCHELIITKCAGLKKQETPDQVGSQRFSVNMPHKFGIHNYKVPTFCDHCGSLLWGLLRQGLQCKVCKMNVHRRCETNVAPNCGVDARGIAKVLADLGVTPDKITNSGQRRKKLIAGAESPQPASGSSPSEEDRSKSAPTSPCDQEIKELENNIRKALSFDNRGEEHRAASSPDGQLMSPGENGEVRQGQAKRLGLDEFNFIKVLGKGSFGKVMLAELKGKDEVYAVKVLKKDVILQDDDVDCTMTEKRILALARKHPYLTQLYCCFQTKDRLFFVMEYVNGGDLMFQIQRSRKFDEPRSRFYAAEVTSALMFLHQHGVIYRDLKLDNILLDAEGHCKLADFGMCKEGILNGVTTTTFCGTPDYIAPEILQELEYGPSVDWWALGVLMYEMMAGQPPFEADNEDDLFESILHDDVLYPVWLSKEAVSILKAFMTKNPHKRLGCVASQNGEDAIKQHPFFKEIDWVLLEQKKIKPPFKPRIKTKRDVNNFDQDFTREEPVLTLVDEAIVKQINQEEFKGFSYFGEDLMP

[40] = biological target: Serine/threonine-protein kinase TBK1 (Homo sapiens) (UniProt Q9UHD2); conditions: Compound concentration 1000.0 nM
[41] = system: Phosphatidylinositol 4,5-bisphosphate 3-kinase catalytic subunit alpha isoform (Homo sapiens), P42336 [E545A]; conditions: Compound concentration 1000.0 nM
[42] = biological target: Bone morphogenetic protein receptor type-1A (Homo sapiens) (UniProt P36894); conditions: Compound concentration 1000.0 nM
[43] = biological target: Serine/threonine-protein kinase pim-3 (Homo sapiens) (UniProt Q86V86); conditions: Compound concentration 1000.0 nM
[44] = biological target: Cyclin-dependent kinase 4 (Homo sapiens) (UniProt P11802); conditions: Compound concentration 1000.0 nM
[45] = biological target: Platelet-derived growth factor receptor alpha (Homo sapiens) (UniProt P16234); conditions: Compound concentration 1000.0 nM

Histamine H2 receptor, sequence (P25021 whole entry): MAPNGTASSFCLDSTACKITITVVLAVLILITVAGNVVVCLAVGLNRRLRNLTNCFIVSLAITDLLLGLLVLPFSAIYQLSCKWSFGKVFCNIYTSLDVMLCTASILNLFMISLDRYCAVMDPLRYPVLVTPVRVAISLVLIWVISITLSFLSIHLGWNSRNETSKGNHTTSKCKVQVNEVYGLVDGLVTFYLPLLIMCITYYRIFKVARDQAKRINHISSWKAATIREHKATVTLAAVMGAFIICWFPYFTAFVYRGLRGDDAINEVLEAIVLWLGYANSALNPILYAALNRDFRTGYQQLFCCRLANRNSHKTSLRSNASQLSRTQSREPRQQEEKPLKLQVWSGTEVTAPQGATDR

Compound: CC(C)(C)OC(=O)N1CCCC1CNC1CCC(c2cc(F)ccc2F)(S(=O)(=O)c2ccc(Cl)cc2)CC1 (stereo unspecified) [GSI-NC]
- Ki (Histamine H2 receptor): 3.79 µM

Compound: O=S(=O)(NC1CCC(c2cc(F)ccc2F)(S(=O)(=O)c2ccc(Cl)cc2)CC1)C(F)(F)F (stereo unspecified) [MRK-560]
- residual activity [1]: 100%
- residual activity [2]: 89%
- residual activity [3]: 100%
- residual activity [4]: 100%
- residual activity [5]: 95%
- residual activity [6]: 100%
- residual activity [7]: 87%
- residual activity [8]: 100%
- residual activity [9]: 100%
- residual activity [10]: 100%
- residual activity [11]: 82%
- residual activity [12]: 91%
- residual activity [13]: 100%
- residual activity [14]: 100%
- IC50 [15]: 0.00065 µM (active)
- residual activity [16]: 91%
- residual activity [17]: 100%
- residual activity [18]: 86%
- residual activity [19]: 100%
- residual activity [20]: 98%
- residual activity [21]: 85%
- residual activity [22]: 100%
- residual activity [23]: 100%
- residual activity [24]: 89%
- residual activity [25]: 100%
- residual activity [26]: 100%
- residual activity [27]: 83%
- residual activity [28]: 100%
- residual activity [29]: 77%
- residual activity [30]: 67%
- residual activity [31]: 100%
- residual activity [32]: 100%
- residual activity [33]: 88%
- residual activity [34]: 90%
- residual activity [35]: 70%
- residual activity [36]: 100%
- residual activity [37]: 79%
- residual activity [38]: 100%
- residual activity [39]: 52%
- residual activity [40]: 100%
- residual activity [41]: 95%
- residual activity [42]: 100%
- residual activity [43]: 100%
- residual activity [44]: 91%
- residual activity [45]: 100%
